{
  "source": "ChEMBL document CHEMBL3351914",
  "about": "“Finding the perfect spot for fluorine: improving potency up to 40-fold during a rational fluorine scan of a Bruton's Tyrosine Kinase (BTK) inhibitor scaffold” (Bioorg Med Chem Lett, 2015)",
  "data": [
    {"target": "Tyrosine-protein kinase BTK (Homo sapiens, UniProt Q06187)", "sequence (Q06187 whole entry)": "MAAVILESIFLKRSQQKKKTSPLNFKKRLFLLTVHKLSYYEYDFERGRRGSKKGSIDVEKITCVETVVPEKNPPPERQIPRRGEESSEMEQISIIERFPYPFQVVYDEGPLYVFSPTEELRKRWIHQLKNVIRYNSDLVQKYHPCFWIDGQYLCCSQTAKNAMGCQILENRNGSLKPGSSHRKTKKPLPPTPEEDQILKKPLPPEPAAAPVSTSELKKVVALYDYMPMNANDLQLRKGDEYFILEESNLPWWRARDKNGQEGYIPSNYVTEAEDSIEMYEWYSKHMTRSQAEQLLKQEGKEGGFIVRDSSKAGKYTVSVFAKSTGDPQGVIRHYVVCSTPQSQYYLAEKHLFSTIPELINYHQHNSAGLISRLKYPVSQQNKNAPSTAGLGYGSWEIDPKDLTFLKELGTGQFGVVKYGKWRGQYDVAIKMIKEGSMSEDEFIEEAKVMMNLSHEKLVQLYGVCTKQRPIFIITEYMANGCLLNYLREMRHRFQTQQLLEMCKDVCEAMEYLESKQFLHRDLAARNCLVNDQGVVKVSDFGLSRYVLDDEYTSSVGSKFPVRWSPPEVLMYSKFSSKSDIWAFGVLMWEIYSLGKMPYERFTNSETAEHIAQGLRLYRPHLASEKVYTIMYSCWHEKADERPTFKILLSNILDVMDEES", "test": "Inhibition of BTK in human whole blood assessed as decrease in CD69 positive cells", "assay_type": "cell-based", "units": {"IC50": "µM"}, "values": [
      {"smiles": "CNC(=O)Nc1cc(-c2ccc(F)c(N3CCc4cc(N(C)C)ccc4C3=O)c2CO)cn(C)c1=O", "IC50": 3.7},
      {"smiles": "CN(C)c1ccc2c(c1)CCN(c1cccc(-c3cc(Nc4ccc(N5CCOCC5)cn4)c(=O)n(C)c3)c1CO)C2=O", "IC50": 0.19},
      {"smiles": "CN(C)c1ccc2c(c1)CCN(c1cc(F)cc(-c3cc(Nc4ccc(N5CCOCC5)cn4)c(=O)n(C)c3)c1CO)C2=O", "IC50": 0.2},
      {"smiles": "CN1CCN(c2ccc(Nc3cc(-c4cccc(N5CCc6cc(C(C)(C)C#N)ccc6C5=O)c4CO)cn(C)c3=O)nc2)CC1", "IC50": 0.06},
      {"smiles": "CN(C)c1ccc2c(=O)n(-c3cccc(-c4cc(Nc5ccc(C(=O)N6CCOCC6)cn5)c(=O)n(C)c4)c3CO)ccc2c1", "IC50": 0.28},
      {"smiles": "CCNC(=O)Nc1cc(-c2cccc(N3CCc4cc(N(C)C)ccc4C3=O)c2CO)cn(C)c1=O", "IC50": 1.6}
    ]}
  ]
}
